Measurements: PubChem BioAssay (NCI)
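GI50 marks 50% less growth. TGI: concentration producing complete growth inhibition.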

Legend:
Assay in all cases: NCI anticancer screen, dose series, 384-well format
[1] = system: NCI-H322M lung
[2] = system: TK-10 renal
[3] = system: SW-620 colon
[4] = system: A549 NSCLC
[5] = system: MDA-MB-468 breast
[6] = system: NCI-H460 NSCLC
[7] = system: ACHN renal
[8] = system: MDA-MB-231 breast
[9] = system: KM12 colon
[10] = system: OVCAR-4 ovarian
[11] = system: NCI/ADR-RES ovarian
[12] = system: RPMI-8226 leukemia
[13] = system: HOP-92 NSCLC
[14] = system: 786-0 renal
[15] = system: UO-31 renal
[16] = system: A498 renal
[17] = system: HCT-15 colon
[18] = system: COLO 205 colon
[19] = system: OVCAR-8 ovarian
[20] = system: HCT-116 colon
[21] = system: SF-268 CNS
[22] = system: EKVX NSCLC
[23] = system: UACC-62 melanoma
[24] = system: IGROV1 ovarian
[25] = system: HL-60(TB) leukemia
[26] = system: T-47D breast
[27] = system: BT-549 breast
[28] = system: NCI-H522 lung
[29] = system: MALME-3M melanoma
[30] = system: SR leukemia
[31] = system: MDA-MB-435 melanoma
[32] = system: HS 578T breast
[33] = system: UACC-257 melanoma
[34] = system: SK-MEL-5 melanoma
[35] = system: SK-MEL-2 melanoma
[36] = system: NCI-H23 lung
[37] = system: OVCAR-5 ovarian
[38] = system: OVCAR-3 ovarian
[39] = system: SNB-19 CNS
[40] = system: MOLT-4 leukemia
[41] = system: SF-539 CNS
[42] = system: LOX IMVI melanoma
[43] = system: HOP-62 NSCLC
[44] = system: M14 melanoma
[45] = system: HCC-2998 colon
[46] = system: MCF7 breast
[47] = system: SN12C renal

SMILES: C[C@H](N)C(=O)N1C[C@H](CCCB(O)O)[C@](N)(C(=O)O)C1
- GI50 [1]: > 100 µM
- TGI [1]: > 100 µM
- GI50 [2]: > 100 µM
- TGI [2]: > 100 µM
- GI50 [3]: > 100 µM
- TGI [3]: > 100 µM
- GI50 [4]: > 100 µM
- TGI [4]: > 100 µM
- GI50 [5]: > 100 µM
- TGI [5]: > 100 µM
- GI50 [6]: > 100 µM
- TGI [6]: > 100 µM
- GI50 [7]: > 100 µM
- TGI [7]: > 100 µM
- GI50 [8]: > 100 µM
- TGI [8]: > 100 µM
- GI50 [9]: > 100 µM
- TGI [9]: > 100 µM
- GI50 [10]: > 100 µM
- TGI [10]: > 100 µM
- GI50 [11]: > 100 µM
- TGI [11]: > 100 µM
- GI50 [12]: > 100 µM
- TGI [12]: > 100 µM
- GI50 [13]: > 100 µM
- TGI [13]: > 100 µM
- GI50 [14]: > 100 µM
- TGI [14]: > 100 µM
- GI50 [15]: > 100 µM
- TGI [15]: > 100 µM
- GI50 [16]: > 100 µM
- TGI [16]: > 100 µM
- GI50 [17]: > 100 µM
- TGI [17]: > 100 µM
- GI50 [18]: > 92 µM
- TGI [18]: > 100 µM
- GI50 [19]: > 100 µM
- TGI [19]: > 100 µM
- GI50 [20]: > 100 µM
- TGI [20]: > 100 µM
- GI50 [21]: > 100 µM
- TGI [21]: > 100 µM
- GI50 [22]: > 100 µM
- TGI [22]: > 100 µM
- GI50 [23]: > 100 µM
- TGI [23]: > 100 µM
- GI50 [24]: > 100 µM
- TGI [24]: > 100 µM
- GI50 [25]: > 87.2 µM
- TGI [25]: > 100 µM
- GI50 [26]: > 100 µM
- TGI [26]: > 100 µM
- GI50 [27]: > 100 µM
- TGI [27]: > 100 µM
- GI50 [28]: > 100 µM
- TGI [28]: > 100 µM
- GI50 [29]: > 100 µM
- TGI [29]: > 100 µM
- GI50 [30]: > 100 µM
- TGI [30]: > 100 µM
- GI50 [31]: > 100 µM
- TGI [31]: > 100 µM
- GI50 [32]: > 100 µM
- TGI [32]: > 100 µM
- GI50 [33]: > 100 µM
- TGI [33]: > 100 µM
- GI50 [34]: > 100 µM
- TGI [34]: > 100 µM
- GI50 [35]: > 100 µM
- TGI [35]: > 100 µM
- GI50 [36]: > 100 µM
- TGI [36]: > 100 µM
- GI50 [37]: > 100 µM
- TGI [37]: > 100 µM
- GI50 [38]: > 100 µM
- TGI [38]: > 100 µM
- GI50 [39]: > 100 µM
- TGI [39]: > 100 µM
- GI50 [40]: > 100 µM
- TGI [40]: > 100 µM
- GI50 [41]: > 100 µM
- TGI [41]: > 100 µM
- GI50 [42]: > 100 µM
- TGI [42]: > 100 µM
- GI50 [43]: > 100 µM
- TGI [43]: > 100 µM
- GI50 [44]: > 86 µM
- TGI [44]: > 100 µM
- GI50 [45]: > 100 µM
- TGI [45]: > 100 µM
- GI50 [46]: > 100 µM
- TGI [46]: > 100 µM
- GI50 [47]: > 100 µM
- TGI [47]: > 100 µM
